# Results reported in patent publication US20200155521A1, “PHARMACEUTICAL COMBINATION FOR TREATMENT OF CANCER” (ArQule, Inc., priority 2018, published 2020).
# How the values were obtained:
# [1] = system: ER+ patient-derived tumor cells with AKTE17K mutation; assay: ER+ patient-derived breast tumor xenograft with AKT1-E17K mutation in athymic nude mice; conditions: Compound 3 at 25 mg/kg, fulvestrant at 2.5 mg/kg, palbociclib at 50 mg/kg
# [2] = system: relative phospho protein and protein levels in xenograft tumor tissues; assay: Reverse phase protein array (RPPA) of xenograft tumor tissues; conditions: normalized for protein loading, linear values; for ER relative protein level / pS6(S240/S244) relative protein level: Vehicle 1.03; for pS6(S235/S236) relative protein level: Vehicle 1.07; for pNDRG1(T346) relative protein level: Vehicle 1.24; for pCDK1(T14) relative protein level: Vehicle 1.40; for p90RSK(T573) relative protein level: Vehicle 1.48; for PLK1 relative protein level: Vehicle 1.55; for MCT4 relative protein level: Vehicle 1.86; for TFRC relative protein level: Vehicle 2.27; for pAkt (S473) relative protein level: Vehicle 3.42
# [3] = system: HCC1954 breast cancer cells; assay: HCC1954 breast cancer xenograft in BALB/c nude mice; type: in vivo, mouse; conditions: Compound 3 at 25 mg/kg, paclitaxel at 15 mg/kg; after 3-week treatment
# Procedure: Female BALB/c nude mice were inoculated with 5×10^6 HCC1954 cells suspended in 0.2 mL PBS+Matrigel mixed with 1:1 volume ratio subcutaneously under anesthetized by 1-5% isoflurane. […] Body weight were measured every three days and were expressed as mean (FIG. 13). The data analysis endpoint for this study was Day 21.
# [4] = system: T47D breast cancer cells; assay: Cell titer-Glo assay in T47D cells, combination with Ribociclib; type: cell-based; conditions: Compound 3 0 nM
# Procedure: (§1) The effect of combined treatment of Compound 3 with CDK4/6 inhibitor, Ribociclib, in vitro was assessed. 2,000 cells/well for MCF-7 and 5000 cells/well for T47D were in cultured in 100 μL of the appropriate media in opaque 96-well plate. On day two appropriate concentration of test articles were added in duplicate, two plates per cell line. Cells were incubated at 37° C. at 5% CO2 for five days. At the conclusion of the five-day culture period, Cell titer-Glo was added according to the manufacturer's protocol and read on a luminescent plate reader to assess relative cell number and viability (Table 8-A, 8-B, 8-C, and 8-D). The combination index was calculated using Compusyn software (www.combosyn.com) (Table 8-E).
# [5] = system: MCF-7 breast cancer cells; assay: Cell titer-Glo assay in MCF-7 cells, combination with Ribociclib; type: cell-based; conditions: Compound 3 0 nM
# Procedure: as §1
Compound,tumor growth inhibition (TGI) [1] [%],ER relative protein level [2],pS6(S240/S244) relative protein level [2],pS6(S235/S236) relative protein level [2],pNDRG1(T346) relative protein level [2],pCDK1(T14) relative protein level [2],p90RSK(T573) relative protein level [2],PLK1 relative protein level [2],MCT4 relative protein level [2],TFRC relative protein level [2],pAkt (S473) relative protein level [2],also measured
C[C@]12CC[C@@H]3c4ccc(O)cc4C[C@@H](CCCCCCCCC[S+]([O-])CCCC(F)(F)C(F)(F)F)[C@H]3[C@@H]1CC[C@@H]2O (stereo partly drawn) [Fulvestrant],68,0.72,1.61,1.61,1.68,1.30,1.70,1.78,1.00,1.12,4.94,–
"CC(=O)O[C@H]1C(=O)[C@@]2(C)[C@H]([C@H](OC(=O)c3ccccc3)[C@]3(O)C[C@H](OC(=O)[C@H](O)[C@@H](NC(=O)c4ccccc4)c4ccccc4)C(C)=C1C3(C)C)[C@]1(OC(C)=O)CO[C@@H]1C[C@@H]2O [paclitaxel, Paclitaxel, reference compound]",–,–,–,–,–,–,–,–,–,–,–,TGI [3]: 44%
"CN(C)C(=O)c1cc2cnc(Nc3ccc(N4CCNCC4)cn3)nc2n1C1CCCC1 [Ribociclib, reference compound]",–,–,–,–,–,–,–,–,–,–,–,Cell Growth Inhibition (%) ([4]; Ribociclib 0.1235 μM): 5.0%; Cell Growth Inhibition (%) ([4]; Ribociclib 0.3704 μM): 12.0%; Cell Growth Inhibition (%) ([4]; Ribociclib 1.111 μM): 11.2%; Cell Growth Inhibition (%) ([4]; Ribociclib 3.333 μM): 24.1%; Cell Growth Inhibition (%) ([4]; Ribociclib 10 μM): 25.8%; Cell Growth Inhibition (%) ([5]; Ribociclib 0.1235 μM): 22.9%; Cell Growth Inhibition (%) ([5]; Ribociclib 0.3704 μM): 21.7%; Cell Growth Inhibition (%) ([5]; Ribociclib 1.111 μM): 20.8%; Cell Growth Inhibition (%) ([5]; Ribociclib 3.333 μM): 35.7%; Cell Growth Inhibition (%) ([5]; Ribociclib 10 μM): 60.1%
CC(=O)c1c(C)c2cnc(Nc3ccc(N4CCNCC4)cn3)nc2n(C2CCCC2)c1=O [Palbociclib],38,1.17,1.95,2.10,1.05,1.12,1.01,1.09,1.34,1.70,4.00,–
